# Laboratory results taken from paper PMC4035770 (Pharmaceuticals, 2014).
# Where a name gives a salt, the structure may show the parent alone.
# Key:
# [1] = Aqueous pH stability profile at 40 °C
# Nicotinic acetylcholine = test: Pharmacological screen, nicotinic acetylcholine receptor binding; settings: Nicotinic acetylcholine
# Procedure: 2.4. Plasma LLOQ/Precision […]
# of 10 ng/mL. […] ACN (200 µL) […]
# was added and the solution was vortex mixed. The remaining mixture was centrifuged at 10,000 rpm […]
# The final concentration was 1 ng/mL. […]
# signal to noise ratio of three.
# 2.6. Brain LLOQ Accuracy/Precision
# Aliquots (5 × 200 µL) were […]
# transferred to 1.5 mL microcentrifuge tubes.
# ACN (300 µL) was added and […]
# the solution was vortex mixed. […] 200 µL
# The solution was vortex mixed again and analysed by HPLC. Final concentrations were 12.5, 125 ng/mL.
# 2.7. Pharmacological Screening of N-Methyl Bupropion and Bupropion […]
# nicotinic acetylcholine receptor [5,6] and SERT [7,8]. The specific nicotinic acetylcholine assays are […]
# and nicotinic acetylcholine α7 [12].
# 3. Results Method Validation […]
# diluent solutions separately.
# [2] = biological target: Muscarinic non -selective, central; test: Pharmacological screen, muscarinic receptor binding
# [3] = cited from earlier work
# [4] = set-up: method as in earlier work; settings: plasma samples; cited from earlier work
# [5] = biological target: T1, Norepinephrine transporter (NET) (Homo sapiens, UniProt P23975); test: Pharmacological screen, norepinephrine transporter; type: binding; settings: NET
# T1 construct: MDS Pharma Services Taiwan
# [6] = Microsomal metabolic stability screen, pooled human liver microsomes (HLM); type: in vitro ADME; settings: 10 µM prodrug, 0.1 mg/mL HLM, NADPH regenerating system, 37 °C, 60 min, n = 2; LOD 0.1 ng/mL
# Procedure: Human liver microsome (HLM) stock solution preparation. HLM (0.5 mL) stock was added to PBS solution (9.5 mL). Final concentration; 1 mg/mL. The PBS solution was prepared by addition of one USP PBS tablet (Sigma-Aldrich catalogue number P4417) dissolved in 200 mL deionised water.
# (§1) Microsomes, NADPH regenerating solutions A and B were thawed rapidly to 37 °C, then kept on wet ice until ready for use. A stock solution of the prodrug (5 mM) was prepared in ACN. To a 1.7 mL microcentrifuge tube in a 37 °C water bath was added the phosphate buffered saline solution (349 µL), the NADPH regenerating solution A (50 µL), the NADPH regenerating solution B (50 µL), and the prodrug solution (1 µL). After incubation for 5 min, microsome solution (50 µL) was added and the metabolism was initiated. The tube was vortex mixed. The final concentrations in this solution was 10 µM prodrug, 0.1 mg/mL HLM or 0.02 mg/mL HIM, 1.3 mM NADP^+, 0.4 U/mL glucose-6-phosphate dehydrogenase and 0.2% organic solvent. This solution was incubated for 60 min at 37 °C. The reaction was quenched by addition of acetonitrile (500 µL). The mixture was centrifuged at 10,000 × g for 10 min. The supernatant was analyzed by LC-MS analysis.
# After passing through the intestinal membrane into the portal circulation the prodrug quickly enters the liver. This metabolic condition was simulated in the present work by using pooled human liver microsomes (HLM).
# [7] = Michaelis-Menten kinetics of bupropion formation in pooled human liver microsomes; type: in vitro ADME; set-up: intrinsic hepatic clearance (Cli, h): unit not given here
# Procedure: Microsomes, NADPH regenerating solutions A and B were thawed rapidly to 37 °C, and then kept on ice until ready for use. Substrate solutions were prepared (1–500 µM) where the maximum concentration of DMSO was 1%, and the concentration of microsomes, NADPH regenerating solution B and phosphate buffer was fixed. After incubation for 5 min, NADPH regenerating solution A was added and the metabolism was initiated. Final volume was 100 μL. The tube was inverted twice and vortex mixed. The final concentrations of prodrug in this solution was 1–500 µM, HLM (0.1 mg/mL) or HIM (0.02 mg/mL), NADP^+ (1.3 mM), glucose-6-phosphate dehydrogenase (0.4 U/mL) and 1.0% DMSO. This solution was incubated for 20 min at 37 °C. The reaction was quenched by addition of 100 µL of acetonitrile. The mixture was centrifuged at 10,000 × g for 10 min. The supernatant was analyzed by LC-MS analysis.
# [8] = Screening incubation in USP simulated gastric fluid (SGF); settings: incubation 37 °C, one hour, n = 2; <LOD = bupropion, its metabolites or other prodrugs not detected; LOD 0.1 ng/mL
# Procedure: USP simulated gastric fluid preparation. Sodium chloride (0.02 g) and purified pepsin (0.032 g) that is derived from porcine stomach mucosa with an activity of 800 to 2,500 units per mg of protein were dissolved in 0.07 mL of concentrated hydrochloric acid and sufficient water to make 10 mL.
# (§2) Pepsin is most efficient at cleaving peptide bonds between hydrophobic and aromatic amino acids such as phenylalanine, tryptophan and tyrosine. In order to simulate the pH and digestive enzymes of the stomach, USP simulated gastric fluid (SGF) was used. Conditions in the intestine were simulated using USP simulated intestinal fluid (SIF).
# (§3) One hour metabolism or hydrolysis was considered to be sufficient time to generate detectable levels of metabolites, bearing in mind the likely exposure time in vivo. A blank media was used in each analysis to subtract a background from each LC-MS sample chromatogram. A t0 sample was also used to identify impurities related to each prodrug.
# (§4) After one hour incubation of each compound in the selected media, the mixture was quenched with acetonitrile and the sample was centrifuged to remove precipitated proteins. The supernatant solution was analyzed immediately by LC-MS using data dependent acquisition analysis.
# (§5) This transformation is commonly used to assess activity of oxidative enzyme CYP2B6 in human liver and intestinal microsomes. […] It was important to report if any of the other prodrugs were detected if for instance a possible multistep-prodrug was found.
# [9] = Microsomal metabolic stability screen, pooled human intestinal microsomes (HIM); type: in vitro ADME; settings: 10 µM prodrug, 0.02 mg/mL HIM, NADPH regenerating system, 37 °C, 60 min, n = 2; LOD 0.1 ng/mL
# Procedure: Human intestinal microsome (HIM) stock solution preparation. HIM (0.2 mL) stock was added to PBS solution (9.8 mL). Final concentration; 0.2 mg/mL.
# as §1
# The intestinal cells contain cytochome P450 enzymes, flavin monoxygenases, esterases and UDP glucuroyl transferases. Condition III involved the use of pooled human intestinal microsomes (HIM) in order to simulate the potential metabolism that occurs during absorption and passage through the intestinal wall.
# [10] = Screening incubation in pooled human plasma (PHP); type: in vitro ADME; settings: incubation 37 °C, one hour, n = 2; <LOD = bupropion, its metabolites or other prodrugs not detected; LOD 0.1 ng/mL
# Excerpt: Pooled human plasma solution preparation. Citrated human plasma was pooled together from three separate donors.
# Finally, pooled human plasma (PHP) was used to evaluate the prodrug stability/activation in blood since the plasma fraction contains much of the hydrolase activity in blood.
# [11] = Screening incubation in USP simulated intestinal fluid (SIF); settings: incubation 37 °C, one hour, n = 2; <LOD = bupropion, its metabolites or other prodrugs not detected; LOD 0.1 ng/mL
# Procedure: USP simulated intestinal fluid preparation. Monobasic potassium phosphate (0.068 g) was dissolved in 2.5 mL of water and mixed. Sodium hydroxide (0.77 mL of 0.2 M) and water (5.0 mL) were added. Pancreatin (0.1 g) was added and the pH adjusted with either 0.2 M sodium hydroxide or 0.2 M hydrochloric acid to a pH of 6.8 ± 0.1. The solution was diluted to 10 mL with water.
# as §2, §3, §4, §5
# [12] = In vitro metabolic screen in the five media (SGF, SIF, HIM, HLM, PHP), overall statement; type: in vitro ADME; settings: 37 °C, one hour, statement in words
# Excerpt: A summary of the oral prodrug candidate matrix we developed is illustrated in Figure 2. It contained six main conditions and can be applied to the development of any drug candidate. The work plan starts out with a concept molecule which in this case was bupropion. At this stage prodrug candidates are identified and the literature is searched for transformations that have been reported and methods used to carry out these transformations. […] After synthesis and purification of each potential prodrug, full spectroscopic characterization was performed. Each prodrug was screened in the metabolic media to assess its stability. Potential prodrug candidates were then selected for further in vitro enzyme kinetic and hydrolysis studies to evaluate the most likely prodrug for further in vivo assessment.
# The five media (SGF, SIF, HIM, HLM and PHP) best represent the transit a drug or prodrug would take if delivered by the oral route of administration.
# T1 sequence (P23975 whole entry): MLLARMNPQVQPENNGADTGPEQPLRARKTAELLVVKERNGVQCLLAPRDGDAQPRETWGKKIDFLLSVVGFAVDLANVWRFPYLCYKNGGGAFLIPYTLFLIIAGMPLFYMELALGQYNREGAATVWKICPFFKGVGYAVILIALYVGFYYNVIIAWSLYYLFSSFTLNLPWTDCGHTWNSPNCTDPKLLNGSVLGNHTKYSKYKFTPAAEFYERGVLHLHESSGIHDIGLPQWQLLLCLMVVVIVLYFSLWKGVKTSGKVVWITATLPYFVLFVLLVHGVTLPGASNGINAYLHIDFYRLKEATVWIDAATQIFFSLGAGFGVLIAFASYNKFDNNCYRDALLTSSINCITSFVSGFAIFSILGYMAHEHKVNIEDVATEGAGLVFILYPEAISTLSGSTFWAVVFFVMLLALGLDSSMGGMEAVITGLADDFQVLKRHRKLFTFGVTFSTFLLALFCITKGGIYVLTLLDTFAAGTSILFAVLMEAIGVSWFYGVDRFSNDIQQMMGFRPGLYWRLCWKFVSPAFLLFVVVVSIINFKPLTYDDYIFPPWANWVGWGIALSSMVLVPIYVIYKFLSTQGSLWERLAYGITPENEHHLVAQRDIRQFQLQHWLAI
Structure (SMILES),Primary product detected in media HLM [6],Primary product detected in media SGF [8],Primary product detected in media HIM [9],Primary product detected in media PHP [10],Primary product detected in media SIF [11],Product / activation to bupropion or its metabolites on screening in the metabolic media [12],other results
"CC(NC(C)(C)C)C(=O)c1cccc(Cl)c1 (racemic) [Bupropion, Rac-bupropion hydrochloride, reference compound]",,,,,,,aqueous degradation rate above pH 12 ([1]; above pH 12): rate of degradation increases significantly; aqueous stability / degradation rate below pH 5 ([1]; below pH 5): stable; IC50 (Nicotinic acetylcholine): > 100 µM; IC50 [2]: 86.5 µM; Ki ([2]; Cheng and Prusoff): 27 µM; aqueous stability profile above pH 5 [3]: poor stability profile; sample stability in plasma (pH) [4]: stable at low pH; nH (Hill coefficient) [5]: 0.835
"CC(C(=O)c1cccc(Cl)c1)N(Cc1ccccc1)C(C)(C)C (racemic) [Compound 5, Rac-N-benzyl bupropion]",The major product was bupropion,<LOD,The major product was bupropion,<LOD,<LOD,,"intrinsic hepatic clearance (Cli, h) ([7]; from HLM Michaelis-Menten parameters): 87; Vmax of bupropion formation ([7]; pooled HLM 0.1 mg/mL, substrate 1–500 µM, 20 min, 37 °C, n = 6): 1323 ± 42.2 pmol/min/mg HLM"
"CC1C(c2cccc(Cl)c2)=NOCN1C(C)(C)C (racemic) [Compound 10, Rac-oxadiazine of bupropion]",,<LOD,,<LOD,<LOD,,
"CC1C(c2cccc(Cl)c2)=NOC(=O)N1C(C)(C)C (racemic) [Compound 11, Rac-oxadiazinone of bupropion]",<LOD,<LOD,<LOD,<LOD,<LOD,resistant to all of the screening conditions,
"CO/C(=C(/C)N(C)C(C)(C)C)c1cccc(Cl)c1 [Compound 6, E/Z-N,O-dimethylated bupropion]",,<LOD,,<LOD,<LOD,N-methylbupropion (4),
"CO/C(=C(/C)N(Cc1ccccc1)C(C)(C)C)c1cccc(Cl)c1 [Compound 7, (E/Z)-O-methyl N-benzyl bupropion]",O-demethylated to N-benzylbupropion (5),<LOD,O-demethylated to N-benzylbupropion (5),<LOD,<LOD,,
"CC(=O)O/C(=C(/C)N(C(C)=O)C(C)(C)C)c1cccc(Cl)c1 [Compound 8, (E/Z)-N,O-diacetylated bupropion]",<LOD,<LOD,<LOD,<LOD,<LOD,did not result in any activation back to bupropion or its metabolites,
"CC(NC(C)(C)C)/C(=N/O)c1cccc(Cl)c1 (stereo not drawn) [Compound 9, syn- and anti-bupropion hydroxyimine]",<LOD,<LOD,<LOD,<LOD,<LOD,neither bupropion nor any of its metabolites were detected,"stability / hydrolysis in simulated gastric fluid (SGF pH 1.2, 37 °C): none was detected; stability at physiological pH (phosphate buffered saline pH 7.4, 37 °C): much greater stability than bupropion"
"Cc1c(-c2cccc(Cl)c2)oc(=O)n1C(C)(C)C [Compound 12, oxazolone of bupropion]",<LOD,<LOD,<LOD,<LOD,<LOD,no bupropion or metabolites thereof detected,
